Among the test systems are LOX IMVI melanoma; SK-MEL-5 melanoma; OVCAR-4 ovarian; IGROV1 ovarian; SK-MEL-2 melanoma; SF-539 CNS; M14 melanoma; HCC-2998 colon; HCT-15 colon; SNB-75 CNS.
Test in all cases: growth of human tumour cells (NCI), 48 h

Experimental findings from PubChem BioAssay (NCI) are described below.

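Method: 48-hour compound exposure of cells in 96-well plates, five concentrations, linear interpolation of endpoints. Here, GI50 denotes the concentration required for 50% inhibition of growth. TGI is the concentration that stops growth completely.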

Consider `O=C(CCc1nnc2s/c(=C\c3ccccc3)c(=O)n12)Nc1cc(Cl)ccc1Cl`, for which the TGI with LOX IMVI melanoma, in the assay with SK-MEL-5 melanoma, in the assay with OVCAR-4 ovarian, in the assay with IGROV1 ovarian, with SK-MEL-2 melanoma and in the assay on SF-539 CNS was more than 100 µM each time. Moreover, the TGI in the assay with M14 melanoma, with HCC-2998 colon, in the assay on HCT-15 colon and with SNB-75 CNS was more than 100 µM in each case.

For the compound `COC(=O)[C@]12CC[C@@H](C)[C@H](C)[C@@H]1C1=CC[C@@H]3[C@@]4(C)C[C@@H](OC(=O)c5ccco5)[C@H](O)[C@@](C)(CO)[C@@H]4[C@H](O)C[C@@]3(C)[C@]1(C)CC2`, the GI50 in the assay on LOX IMVI melanoma was 1.68 µM; in the assay on SK-MEL-5 melanoma, 1.99 µM; in the assay on OVCAR-4 ovarian, 3.41 µM; in the assay with IGROV1 ovarian, 2.42 µM; with SK-MEL-2 melanoma, 1.97 µM; in the assay with SF-539 CNS, 2.28 µM. Also, the GI50 was 2.26 µM in the assay with M14 melanoma, 1.95 µM with HCC-2998 colon, 1.84 µM in the assay on HCT-15 colon and 2.38 µM with SNB-75 CNS. Also, the TGI with LOX IMVI melanoma was found to be 3.1 µM; in the assay on SK-MEL-5 melanoma, 4.09 µM; with OVCAR-4 ovarian it was 13.5 µM; in the assay with IGROV1 ovarian it was 6.33 µM; in the assay with SK-MEL-2 melanoma, 4.31 µM; in the assay on SF-539 CNS, 5.17 µM. The TGI in the assay with M14 melanoma was 4.74 µM; in the assay on HCC-2998 colon, 3.73 µM; in the assay on HCT-15 colon, 3.89 µM; in the assay with SNB-75 CNS, 11.7 µM.

As to `Cc1ccc(/C=C(\C#N)n2nnc3cc(Cl)c(Cl)cc32)cc1`, the GI50 with LOX IMVI melanoma is 1.81 µM; with SK-MEL-5 melanoma it was 2.44 µM; in the assay on OVCAR-4 ovarian it was 2.69 µM; in the assay with IGROV1 ovarian, 2.26 µM; in the assay on SK-MEL-2 melanoma it was 3.96 µM; in the assay on SF-539 CNS, 2.53 µM. Further, the GI50 was 2.18 µM in the assay with M14 melanoma, 1.9 µM in the assay on HCC-2998 colon, 1.73 µM in the assay with HCT-15 colon and 1.57 µM with SNB-75 CNS. The TGI was 3.65 µM with LOX IMVI melanoma; 6.55 µM in the assay on SK-MEL-5 melanoma; 81.5 µM in the assay with OVCAR-4 ovarian; 6.48 µM in the assay on IGROV1 ovarian; more than 100 µM with SK-MEL-2 melanoma; 6.6 µM with SF-539 CNS. The TGI in the assay on M14 melanoma amounted to 5.66 µM; with HCC-2998 colon it was 4.12 µM; in the assay with HCT-15 colon, 5.99 µM; in the assay on SNB-75 CNS it was 9.74 µM.

As to `Cc1cccc(CN(C)c2ccc(CO)c(Cl)c2)c1`, the GI50 was 18 µM with LOX IMVI melanoma; 9.47 µM with SK-MEL-5 melanoma; 2.61 µM in the assay on OVCAR-4 ovarian; 0.475 µM with IGROV1 ovarian; 8.54 µM in the assay on SK-MEL-2 melanoma; 26.8 µM in the assay on SF-539 CNS. The GI50 in the assay on M14 melanoma is 20.6 µM; in the assay on HCC-2998 colon it was 15.9 µM; in the assay with HCT-15 colon, 19.8 µM; in the assay on SNB-75 CNS, 18.8 µM. The TGI was 40.4 µM in the assay with LOX IMVI melanoma; 22.3 µM in the assay on SK-MEL-5 melanoma; 25.3 µM in the assay with OVCAR-4 ovarian; 2.67 µM in the assay on IGROV1 ovarian; 36 µM in the assay with SK-MEL-2 melanoma; more than 77.3 µM with SF-539 CNS. Further, the TGI with M14 melanoma was more than 65.9 µM; with HCC-2998 colon it was 52.9 µM; with HCT-15 colon, more than 100 µM; in the assay with SNB-75 CNS it was 80 µM.

For `COc1c(OC(C)=O)cc2c(OC(C)=O)c1CC(C)CC(OC)C(O)C(C)/C=C(\C)C(OC(N)=O)C(OC)/C=C\C=C(/C)C(=O)N2` (stereo not given), the TGI in the assay with LOX IMVI melanoma, with SK-MEL-5 melanoma, with OVCAR-4 ovarian, in the assay with IGROV1 ovarian, in the assay with SK-MEL-2 melanoma and with SF-539 CNS was more than 100 µM throughout. Further, the TGI with M14 melanoma, in the assay with HCC-2998 colon, with HCT-15 colon and in the assay on SNB-75 CNS was more than 100 µM throughout.

`N#Cc1ccc(Oc2nccc(-c3c(-c4ccc(F)cc4)ncn3C3CCNCC3)n2)cc1`: the GI50 was 5.85 µM in the assay with LOX IMVI melanoma; 14.1 µM in the assay on SK-MEL-5 melanoma; more than 25 µM in the assay with OVCAR-4 ovarian; more than 25 µM with IGROV1 ovarian; more than 25 µM in the assay on SK-MEL-2 melanoma; more than 25 µM with SF-539 CNS. The GI50 is more than 16.4 µM in the assay with M14 melanoma, 18.6 µM in the assay on HCC-2998 colon, more than 14.8 µM in the assay on HCT-15 colon and more than 16 µM with SNB-75 CNS. The TGI in the assay on LOX IMVI melanoma was more than 13.5 µM; in the assay on SK-MEL-5 melanoma, more than 25 µM; in the assay with OVCAR-4 ovarian it was more than 25 µM; with IGROV1 ovarian, more than 25 µM; in the assay on SK-MEL-2 melanoma it was more than 25 µM; with SF-539 CNS, more than 25 µM. For the same compound, the TGI with M14 melanoma, in the assay with HCC-2998 colon, in the assay on HCT-15 colon and in the assay on SNB-75 CNS was more than 25 µM throughout.

Consider `Nc1nnc2nc(CC(=O)/C=C/c3ccccc3)c(=O)[nH]n12`, for which the TGI with LOX IMVI melanoma, in the assay with SK-MEL-5 melanoma, in the assay with OVCAR-4 ovarian, in the assay on IGROV1 ovarian, in the assay with SK-MEL-2 melanoma and in the assay on SF-539 CNS was more than 100 µM each time. For the same compound, the TGI with M14 melanoma, in the assay with HCC-2998 colon, in the assay on HCT-15 colon and in the assay on SNB-75 CNS was more than 100 µM each time.

Take `C[N+](C)(C)CCOP(=O)(O)OP(=O)([O-])OCC1CCC(n2ccc(N)nc2=O)O1` (stereo not given): the TGI in the assay on LOX IMVI melanoma, in the assay on SK-MEL-5 melanoma, with OVCAR-4 ovarian, in the assay with IGROV1 ovarian, in the assay on SK-MEL-2 melanoma and in the assay on SF-539 CNS was more than 100 µM in each case. In addition, the TGI in the assay with M14 melanoma, in the assay with HCC-2998 colon, with HCT-15 colon and in the assay with SNB-75 CNS was more than 100 µM throughout.

As to `O=C(CCCn1c2c(sc3ncccc32)c(=O)n2nnc(-c3ccccc3)c12)NCCc1cnc[nH]1`, the GI50 was 12.4 µM with LOX IMVI melanoma; 16.1 µM in the assay with SK-MEL-5 melanoma; 15.4 µM in the assay with OVCAR-4 ovarian; 9.54 µM in the assay on IGROV1 ovarian; 17.6 µM in the assay with SK-MEL-2 melanoma; 0.316 µM in the assay with SF-539 CNS. For the same compound, the GI50 is 3.5 µM in the assay on M14 melanoma, 2.03 µM with HCC-2998 colon, 5.8 µM with HCT-15 colon and 15.1 µM with SNB-75 CNS. In addition, the TGI in the assay with LOX IMVI melanoma is 26.6 µM; in the assay on SK-MEL-5 melanoma, more than 100 µM; in the assay on OVCAR-4 ovarian it was 32.2 µM; in the assay on IGROV1 ovarian, 27.6 µM; with SK-MEL-2 melanoma it was 38.9 µM; in the assay with SF-539 CNS, 14.9 µM. Besides, the TGI in the assay on M14 melanoma was 19.4 µM; in the assay with HCC-2998 colon it was 29.9 µM; with HCT-15 colon, more than 100 µM; with SNB-75 CNS, 28.9 µM.
